{"source": "patent US7304093B2", "about": "“Ketone compounds and compositions for cholesterol management and related uses” (Esperion Therapeutics, Inc., priority 2000, dated 2007)"}
{"tested_on": "primary rat hepatocytes", "assay": "Inhibition of lipid synthesis ([1-14C]-acetate incorporation) in primary cultures of rat hepatocytes", "format": "cell-based", "conditions": "Hepatocyte, 4 h incubation with [1-14C]-acetate, Table 7, ranges: confidence of estimate insufficient to assign a value", "outline": "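Monolayer primary hepatocytes from male Sprague-Dawley rats, serum-free overnight, were incubated 4 h with 0, 1, 3, 10, 30, 100 or 300 μM compound and 0.25 μCi [1-14C]-acetate per well. Total lipid synthesis was read as radioactivity in the lipid phase extracted into scintillant.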", "units": {"IC50": "nM"}}
{"smiles": "CC(C)(CCCCC(=O)CCCCC(C)(C)C(=O)O)C(=O)O", "note": "[Compound 210c, 7-Oxo-2,2,12,12-tetramethyltridecanedioic acid]", "IC50": 3000}
{"smiles": "CC(C)(CCCCCC(=O)CCCCCC(C)(C)C(=O)O)C(=O)O", "note": "[Compound 210g, 2,2,14,14-Tetramethyl-8-oxopentadecanedioic acid]", "IC50": 3000}
{"smiles": "CC(C)(CO)CCCCC(=O)CCCCC(C)(C)CO", "note": "[Compound 214c, 1,13-Dihydroxy-2,2,12,12-tetramethyltridecan-7-one]", "IC50": 4000}
